Experimental findings from article PMC3158281 (Nature chemical biology, 2011) are described below.

For one experiment, the system named is HeLa cells. The experiment in a line: Mitotic arrest and apoptotic cell death in cultured HeLa cells. Particulars: 100 nM. The experiment is classed as cell-based, human.
The target of another experiment is T1, peptide 9 (synthetic construct, not fully specified (residue 3); reading uncertain).
T1 chain: {FITC-PEG}-PLHS[Pmab]
The experiment in a line: fluorescence polarization.

Square brackets hold non-standard residues; d marks the D form. Ends that are not written are not given here. * marks the point of attachment. FITC = O=C1OC2(c3ccc(O)cc3Oc3cc(O)ccc32)c2ccc(NC(=S)*)cc21; Pmab = not defined here; PEG = not defined here

In the case of `CC[C@@H]1C(=O)N(C)c2cnc(Nc3ccc(C(=O)NC4CCN(C)CC4)cc3OC)nc2N1C1CCCC1` [BI 2536], the “induction of mitotic arrest and apoptotic cell death” value with HeLa cells was “induced a greatly delayed, but pronounced mitotic arrest and apoptotic cell death”.

B1: Plk3 PBD PBD (protein)
chain: WVSKWVDYSNKFGFGYQLSSRRVAVLFNDGTHMALSANRKTVHYNPTSTKHFSFSVGAVPRALQPQLGILRYFASYMEQHLMKGGDLPSVEEVEVPAPPLLLQWVKTDQALLMLFSDGTVQVNFYGDHTKLILSGWEPLLVTFVARNRSACTYLASHLRQLGCSPDLRQRLRYALRLLRDRSP
By Kd is commonly meant the free concentration of one partner at which half of the binding sites on the other are occupied at equilibrium, for simple one-to-one binding. On to B1, for which the Kd with peptide 9 is 460 nM.
